Source: US20250361511A1, “NANOPARTICLE COMPOSITIONS CONTAINING SIRP-alpha siRNA FOR TREATMENT OF CANCER” (The Texas A&M University System, priority 2024, published 2025)

Experiments:
OVCAR3 monospheroids = experiment: Response to carboplatin chemotherapy, MTS viability, monospheroids; assay type: cell-based
Description: (§1) Spheroid formation on 384-well hanging drop arrays. OvCa monospheroids or OvCa/macrophage heterospheroids were formed on a 384-well hanging drop array following well-established protocols. OvCa monospheroids were initiated with 100 cells in a 20 μL drop of growth medium. To create OvCa/macrophage heterospheroids, the hanging drop platform was first leveraged to differentiate THP-1 monocytes to M0 macrophages by phorbol ester exposure20. Following a 3-day differentiation, macrophages were harvested and mixed with OvCa cells (50:50) to create heterospheroids. Monospheroid or heterospheroid formation was visually confirmed using phase contrast microscopy at day 4.
(§2) Response to chemotherapy. Carboplatin (MedChemExpress, Monmouth Junction, NJ) was dissolved by sonication in sterile PBS at a stock concentration of 5 mg/mL. OVCAR3 monospheroids or OVCAR3/macrophage heterospheroids formed over 4 days were treated with 0-500 μM carboplatin and incubated for 2 days/48 hours. An MTS assay was then used to determine the percent cell viability in carboplatin-treated spheroids compared to untreated controls. IC50 values were calculated with the GraphPad Prism normalized log (inhibitor) variable slope nonlinear fit function.
(§3) siSIRPα LNP immune checkpoint treatment. Mono-or hetero-spheroids were treated with 25 nM siSIRPα LNP on day 2 in hanging drop culture. LNP ability to reduce both macrophage SIRPα expression and OvCa metastatic behavior were evaluated over 4 more days.

[1] = tested on: OVCAR3/macrophage heterospheroids; experiment: Response to carboplatin chemotherapy, MTS viability, heterospheroids; assay type: cell-based
Description: as §1, §2, §3

N.N.O=C([O-])C1(C(=O)[O-])CCC1.[Pt+2] [carboplatin]
IC50 (OVCAR3 monospheroids; OVCAR3 monospheroids, carboplatin 0-500 μM, FIG. 1B): 114 µM
IC50 (OVCAR3 monospheroids; monospheroids after siSIRPα LNP, FIG. 15A): 272 µM
IC50 (OVCAR3 monospheroids; monospheroids, control, 0-500 μM for 48 hours, MTS, FIG. 10C/15A): 218 µM
IC50 ([1]; OVCAR3/THP1 OvCa/MP hetero-spheroids, no LNP, FIG. 1B/6B): 536 µM
IC50 ([1]; OvCa/MP hetero-spheroids treated with siSIRPα-LNP, FIG. 6B): 213 µM
IC50 ([1]; heterospheroids with 25 nM siSIRPα LNP treatment, FIG. 14B): 321 ± 54.6 µM
IC50 ([1]; heterospheroids with negative control (scramble) siRNA LNP, FIG. 15C): 405 µM
IC50 ([1]; heterospheroids, no treatment, 0-500 μM for 48 hours, MTS, FIG. 10C/14B/15C): 368 µM
